# Measurements taken from patent US7470807B2, “Substituted arylalkanoic acid derivatives and use thereof” (Asahi Kasei Pharma Corporation, priority 2003, dated 2008).
# Assays:
# [1] = tested on: bleomycin-induced pulmonary fibrosis; experiment: Bleomycin-induced rat pulmonary fibrosis model; assay type: in vivo; conditions: for fibrosing in groups administered with known type 4 PLA2 inhibitory compounds: bleomycin model, intraperitoneally or orally administered in a similar manner; for median of the fibrosing score: bleomycin intratracheal, oral 10, 30, 100 and 300 mg/kg once or twice a day for 21 days, positive control ++ to +++
# Method: A suppressing effect on pulmonary fibrosing in a bleomycin-induced rat pulmonary fibrosis model, which is a pathological model of pulmonary fibrosis, was studied by the following method. Groups of BN female rats (7-week old) each consisting of seven rats were used for the test. The test animals were anesthetized with ketamine and xylazine, and the tracheae were exposed. Then, a 125 μg/0.1 ml solution of bleomycin (Nippon Kayaku) dissolved in physiological saline (Ohtsuka Pharmaceutical Factory) was injected into the tracheae by using a syringe. The negative control group was administered with 0.1 ml of saline into the tracheae.
# Each test compound was suspended or dissolved in purified water containing 0.5% methylcellulose, and orally administered to the test animals at doses of 10, 30, 100 and 300 mg/5 ml/kg. The administration of the test compounds was started from the day of the bleomycin administration and performed once or twice a day for 21 days. The positive control group was administered with purified water containing 0.5% methylcellulose not added with any test compound in a similar manner. On the 21st day after the administration of bleomycin, the rats were sacrificed, and lungs were fixed with neutral buffered formalin to prepare histopathological samples. Staining of the histopathological samples was performed by the Azan method.
# The histopathological samples of lungs were examined, and degree of fibrosing was represented with the following scores on the basis of formation of granulation tissues and proliferation of collagen fibers as indicators, i.e., −: no abnormality, ±: extremely mild change, +: mild change, ++: moderate change, and +++: significant change.
# pulmonary fibrosis = conditions: clinical tests in the United States and Japan; cited from earlier work
Compound,fibrosing in groups administered with known type 4 PLA2 inhibitory compounds [1],median of the fibrosing score [1],further results
"O=C1NC(=O)C(=Cc2ccc(C(=O)NCC3CC(SC(c4ccccc4)(c4ccccc4)c4ccccc4)CN3C(=O)c3ccccc3C(=O)c3ccc(F)cc3F)cc2)S1 (stereo not drawn) [N-{1-[2-(2,4-difluorobenzoyl)benzoyl]-4-tritylsulfanylpyrrolidin-2-ylmethyl}-4-(2,4-dioxothiazolidin-5-ylidenemethyl)benzoic acid amide]",mild,–,–
3-[4-cyclopentyloxy-3-(1H-indole-5-yl)phenyl]propionic acid [G-4],–,± to +,–
"COc1cc(C(=O)O)ccc1Cc1cn(C(c2ccccc2)c2ccccc2)c2cc(Cl)ccc12 [4-(1-benzhydryl-6-chloro-1H-indol-3-ylmethyl)-3-methoxybenzoic acid, reference compound]",mild,–,–
3-[4-cyclopentyloxy-3-(naphthalen-2-yl)phenyl]propionic acid [G-2],–,± to +,–
"O=C(CCc1ccc(OCCS(=O)(=O)CCOC(c2ccc(Cl)cc2)c2ccc(Cl)cc2)cc1)C(F)(F)F [4-{4-[2-(2-[bis(4-chlorophenyl)methoxy]ethylsulfonyl)ethoxy]phenyl}-1,1,1-trifluoro-2-butanone]",mild,–,–
Cc1ccc(=O)n(-c2ccccc2)c1 [pirfenidone],–,–,effect against pulmonary fibrosis in clinical tests (pulmonary fibrosis): effective
